Assay results from article PMC4608580, “Synthesis and Evaluation of Biological Activity of Antimicrobial – Pro-Proliferative Peptide Conjugates” (PLoS ONE, 2015).
Like-named read-outs stand apart in the source and are kept apart here. No end group written: not given here.

Legend:
[1] = test system: B. cereus; format: cell-based; conditions: 24 h
Method: (§1) Luria-Bertani broth (LB) and Sabouraud Dextrose broth (SB) (Biocorp, Poland) were used for cultivation of bacteria and fungi strains, respectively. Antimicrobial activity of peptides was analyzed through determination of MIC (minimal inhibitory concentration) parameter according to the standard microdilution technique performed on 96-well plates. Mueller-Hinton broth (MHB) was used as the working medium for all bacterial strains, while in case of fungi it was additionally supplemented with 2% glucose.
(§2) Briefly, inoculum was prepared from freshly grown cultures of microorganisms being at their exponential phase of growth. Each well of 96-well plates containing 100 μL of serially diluted peptides in PBS (phosphate buffer saline) at concentration ranging from 2 to 250 μg/mL were inoculated with 100 μL of approximately 10^5 CFU/mL of bacterial suspension or about 2.5 x 10^3 CFU/mL of fungi suspended in a double concentrated Mueller-Hinton broth (supplemented with 2% glucose for Candida spps.). Then plates were incubated overnight at 37°C and absorbance was read at 590 nm after 24 h. Cultures without peptide were treated as positive control, while uninoculated Mueller-Hinton broth was defined as negative control. All measurements were run at least in triplicate.
(§3) All peptides were screened against the wide range of microorganisms, including Gram-negative, Gram-positive bacteria and fungi from Candida species (Table 2). Broth microdilution method for MIC determination was used as a standard procedure. All assays were performed on liquid Mueller-Hinton broth, which was additionally supplemented with 2% glucose when fungicidal activity towards Candida spps. was analyzed.

[2] = test system: B. subtilis; format: cell-based; conditions: 24 h
Method: as §1, §2, §3

[3] = test system: Candida albicans (CCM 8186); format: cell-based; conditions: broth microdilution, Mueller-Hinton broth + 2% glucose, about 2.5 x 10^3 CFU/mL, 37°C, 24 h, absorbance 590 nm, peptide 2 to 250 μg/mL, at least triplicate
Excerpt: (§4) Escherichia coli (PCM 2057), Staphylococcus aureus (PCM 2054), Staphylococcus epidermidis (PCM 2118), Pseudomonas aeruginosa (PCM 499) were obtained from Polish Collection of Microorganisms. Fungi strains Candida albicans (CCM 8186), Candida glabrata (CCM 8270), Candida parapsilosis (CCM 8260), Candida krusei (CCM 8271), Candida tropicalis (CCM 8264) were acquired from Czech Collection of Microorganisms.
as §1, §2, §3

[4] = test system: Candida glabrata (CCM 8270); format: cell-based; conditions: broth microdilution, Mueller-Hinton broth + 2% glucose, about 2.5 x 10^3 CFU/mL, 37°C, 24 h, absorbance 590 nm, at least triplicate
Excerpt: as §4, §1, §2, §3

[5] = test system: Candida krusei (CCM 8271); format: cell-based; conditions: broth microdilution, Mueller-Hinton broth + 2% glucose, about 2.5 x 10^3 CFU/mL, 37°C, 24 h, absorbance 590 nm, at least triplicate
Excerpt: as §4, §1, §2, §3

[6] = test system: Candida parapsilosis (CCM 8260); format: cell-based; conditions: broth microdilution, Mueller-Hinton broth + 2% glucose, about 2.5 x 10^3 CFU/mL, 37°C, 24 h, absorbance 590 nm, at least triplicate
Excerpt: as §4, §1, §2, §3

[7] = test system: Candida tropicalis (CCM 8264); format: cell-based; conditions: broth microdilution, Mueller-Hinton broth + 2% glucose, about 2.5 x 10^3 CFU/mL, 37°C, 24 h, absorbance 590 nm, at least triplicate
Excerpt: as §4, §1, §2, §3

[8] = test system: Escherichia coli (PCM 2057); format: cell-based
Excerpt: as §4, §1, §2, §3

[9] = test system: Pseudomonas aeruginosa (PCM 499); format: cell-based
Excerpt: as §4, §1, §2, §3

[10] = test system: Staphylococcus aureus (PCM 2054); format: cell-based
Excerpt: as §4, §1, §2, §3

[11] = test system: Staphylococcus epidermidis (PCM 2118); format: cell-based
Excerpt: as §4, §1, §2, §3

[12] = test system: immortalized human HaCaT keratinocytes; test: Cell proliferation assay (MTT); format: cell-based; conditions: 72 h, serum-free DMEM; for Effect on HaCaT proliferation (MTT), in words: lower concentrations, 1 or 10 μg/mL; for Effect on HaCaT cell viability/proliferation (MTT), in words: whole range 1–50 μg/mL, vs. control without peptide, triplicate
Method: (§5) In our study two kind of cells were used: immortalized human HaCaT keratinocytes (DKFZ Heidelberg, Germany) and primary dermal fibroblasts obtained from 3 healthy donors. Both types of the used cell lines were grown in Dulbecco's modified Eagle's medium (DMEM) (Sigma–Aldrich, Germany), that contained […] of glucose, […] of L-glutamine, sodium pyruvate and sodium bicarbonate. Additionally, medium was supplemented with 10% of FCS (fetal calf serum, Sigma-Aldrich, Germany), 100 U/mL of penicillin and 100 μg/mL streptomycin (Sigma-Aldrich, Germany). The cells were grown in culture dishes (BD, USA) under standard conditions in a humidified atmosphere with 5% CO2 at 37°C and medium was changed every 2 days.
(§6) The fibroblasts and keratinocytes were seeded at density of 4500 and 6000 cells per well, respectively, into 96-well plates suspended in a medium supplemented with 10% of FCS. After 24 h the media were exchanged with serum- and antibiotic- free DMEM and tested peptides dissolved in PBS were added yielding final concentration ranging from 1 to 50 μg/mL. Cells were incubated for the next 24 hours, when the medium was exchanged again and fresh portion of peptides (used at the same concentrations as previously) was added. Incubation was continued for the next 48 hours (the overall time of cell exposition to peptide was 72 h). At the end of the experiment cells were treated with 20 μL of MTT (5 mg/mL in PBS). After 3 h at 37°C under 5% CO2 medium was discarded and replaced by 6mM HCl in isopropanol. After 15 min when the purple crystals of formazan were fully solubilized, absorbance was read at 570 nm with a plate reader. The optical density reflects the level of cell viability as MTT is converted in purple formazan product only in the presence of viable mitochondria of the living cells.
Fig 1 Pro-proliferative activity of the tested peptides towards human keratinocytes (A) and fibroblasts (B). Cells were incubated for 72 hours in serum-free DMEM medium in the presence of peptides applied at concentrations of 1,10, 25 and 50 μg/mL, respectively. The data represents results of MTT assay expressed as the percentage of the cell viability in comparison to their control sample (cells incubated in serum-free DMEM without tested peptides), additional positive control corresponds to the cells incubated in the presence of 10% FCS. All experiments were performed independently in triplicate. *P < 0.05, **P < 0.01, ***P < 0.001 vs. control.
In order to evaluate a long-term effect of peptides, experiments were carried out for 72 hours. Before addition of the tested compounds, the cell medium was exchanged for the fresh one not containing any serum or antibiotic.

[13] = Circular dichroism, alpha-helical content; format: physicochemical; conditions: CD, mean residue ellipticity at 222 nm (Eq 1), peptide 0.4 mg/ml in 30 mM SDS, room temperature
Method: Circullar dichroism spectra of analyzed compounds were recorded on a Jasco J-815 spectropolarimeter using a quartz cell of 1 mm path length between 195–260 nm at room temperature. Peptides at concentration of 0.4 mg/ml were dissolved in water or 30 mM SDS solution. SDS micelle system was used as the simplified model of negatively charged lipid membrane. On the basis of the obtained results the alpha-helical content was determined from the mean residue ellipticities at 222 nm according to Eq 1: %Helix=([θ]obs/([θ]helixx(1−2.57/l))x100, (1) where [θ] obs is the experimentally observed mean-residue ellipticity at 222 nm, [θ]helix is the theoretical ellipticity of peptide of infinite length with a 100% helix population, taken as -39 500 deg·cm^2/dmol, and l is the number of peptide bonds.
Circular dichroism method was applied to obtain a basic information about the secondary structure of the synthesized compounds (with the exception of CAR, CAR3, DAL, CTEN2) in two chemical environments, water and 30 mM SDS. As expected, all the tested compounds in water adopted a random-coil structure, while in the presence of 30 mM SDS most of them formed α-helices with characteristic negative minima around 208 and 220 nm. […] The examples of CD spectra for selected peptides could be seen in supporting information (Figure A in S1 File). On the basis of the experimentally obtained values of the mean residue ellipticities of peptides at 222 nm their alpha-helical content was calculated according to the Eq 1 (Table 1).

[14] = test system: human primary dermal fibroblasts; test: Cell proliferation assay (MTT); format: cell-based; conditions: 72 h, serum-free DMEM, peptide at 1–25 μg/mL
Method: Biopsies of healthy human skin were obtained aseptically from three donors (47–69 years old) undergoing circumcision after obtaining their written informed consent. All the procedures were approved by the Ethics Committee of Medical University of Gdansk (NKEBN/483/2011. Issued: 2011-12-19). The samples were washed several times with sterile PBS (Sigma-Aldrich, Germany) containing antibiotic (200 U/mL penicillin and 200 μg/mL streptomycin), after which, the subcutaneous tissue was cut off with a sharp blade. The resulting sheets were cut into small fragments, washed two times with sterile PBS and treated with 6 U/mL dispase II (BD, USA) overnight at 4°C to separate epidermis and dermis. The dermis was then digested with 1.0 mg/mL collagenase type I (from Clostridium histolyticum Sigma-Aldrich, Germany) for 2 hours at 37°C to isolate fibroblasts. Cells were used between the 2nd and 4th passage in all experiments.
as §5
as §6, with “At the end of the experiment cells were treated with 20 μL of MTT (5 mg/mL in PBS). After 3 h at 37°C under 5% CO2 medium was discarded and replaced by 6mM HCl in isopropanol.” left out, “The optical density reflects the level of cell viability as MTT is converted in purple formazan product only in the presence of viable mitochondria of the living cells.” left out
Fig 1 Pro-proliferative activity of the tested peptides towards human keratinocytes (A) and fibroblasts (B). […] The data represents results of MTT assay expressed as the percentage of the cell viability in comparison to their control sample (cells incubated in serum-free DMEM without tested peptides), additional positive control corresponds to the cells incubated in the presence of 10% FCS. […]

[15] = broth microdilution, Mueller-Hinton broth, approximately 10^5 CFU/mL, 37°C, absorbance 590 nm, at least triplicate
[16] = broth microdilution, Mueller-Hinton broth, approximately 10^5 CFU/mL, 37°C, 24 h, absorbance 590 nm, at least triplicate

| Substance | MIC B. cereus [1, 15] [µg/mL] | MIC B. subtilis [2, 15] [µg/mL] | MIC C. albicans [3] [µg/mL] | MIC C.glabrata [4] [µg/mL] | MIC C.krusei [5] [µg/mL] | MIC C. parapsilosis [6] [µg/mL] | MIC C.tropicalis [7] [µg/mL] | MIC E.coli [8, 16] [µg/mL] | MIC P. aeruginosa [9, 16] [µg/mL] | MIC S.aureus [10, 16] [µg/mL] | MIC S. epidermidis [11, 16] [µg/mL] | α-helicity [13] [%] | Effect on HaCaT cell viability/proliferation (MTT), in words [12] | also measured |
| --- | --- | --- | --- | --- | --- | --- | --- | --- | --- | --- | --- | --- | --- | --- |
| βAH-PEG-IKKILSKIKKLL-NH2 [CAR-PEG-DK5, conjugate of carnosine and DK5 joined by PEG-linker] | 100 | 3.9 | 15.6 | 62.5 | 3.9 | 31.3 | <2 | 100 | 50 | 125 | 3.9 | 41 |  | Effect on HaCaT proliferation (MTT), in words [12]: induced cell proliferation |
| KKVVFWVKFK-NH2 [KSLW, reference compound] |  |  |  |  |  |  |  |  |  |  |  |  |  | MIC B. cereus [1]: 50 µg/mL; MIC B. subtilis [2]: 7.8 µg/mL; MIC E.coli ([8]; PCM 2057, 24 h): 7.8 µg/mL; MIC P. aeruginosa ([9]; PCM 499, 24 h): 25 µg/mL; MIC S.aureus ([10]; PCM 2054, 24 h): 25 µg/mL; MIC S. epidermidis ([11]; PCM 2118, 24 h): 7.8 µg/mL |
| EGLEPG [CTEN2] |  |  |  |  |  |  |  |  |  |  |  |  | non-toxic | Effect on fibroblast cell count (MTT), in words [14]: Increased cell count |
| YAGFLR [DAL, dalargin, synthetic Leu-enkephalin analogue, reference compound] |  |  |  |  |  |  |  |  |  |  |  |  | non-toxic |  |
| IKKILSKIKKLLK-NH2 [LK6, reference compound] |  |  |  |  |  |  |  |  |  |  |  |  |  | MIC B. cereus [1]: 50 µg/mL; MIC B. subtilis [2]: 7.8 µg/mL; MIC E.coli ([8]; PCM 2057, 24 h): >125 µg/mL; MIC P. aeruginosa ([9]; PCM 499, 24 h): 25 µg/mL; MIC S.aureus ([10]; PCM 2054, 24 h): 100 µg/mL; MIC S. epidermidis ([11]; PCM 2118, 24 h): 7.8 µg/mL |
| ΒAHβAHβAH-PEG-IKKILSKIKKLL-NH2 [CAR3-PEG-DK5, conjugate of CAR3 and DK5 joined by PEG-linker] | >125 | 15.6 | 100 | 125 | 7.8 | 2.0 | 7.8 | >125 | 50 | >125 | 7.8 | 27 |  | Effect on HaCaT proliferation (MTT), in words [12]: induced cell proliferation |
| IKKILSKIKKLL-PEG-YAGFLR [DK5-PEG-DAL, conjugate of DK5 and dalargin joined by PEG-linker (8-amino-3,6-dioxaoctanoic acid)] | >125 | 7.8 | 100 | >125 | 7.8 | 2.0 | 7.8 | 7.8 | >125 | >125 | 7.8 | 20 | negative dose-response relationship |  |
| EGLEPG-PEG-IKKILSKIKKLLK-NH2 [CTEN2-PEG-LK6, conjugate of CTEN2 and LK6 joined by PEG-linker] | >125 | 7.8 | 125 | >125 | 15.6 | 125 | 7.8 | >125 | >125 | >125 | 7.8 | 20 |  |  |
